Here are results for 7 compounds from patent publication US8202834B2, “Fat regulation” (FibroGen, Inc., priority 2002, dated 2012).

For assay [1], the system named is DEC1/Stra13. The assay is described as follows: DEC1/Stra13 expression in tissues after 4 days of oral dosing. It is filed as in vivo, mouse. Particulars: adipose, kidney, liver and muscle; oral gavage once per day for 4 days, 4 h after final dose; FIG. 3B. As for the experimental part:
(§1) To further investigate the effect of the methods and compounds of the present invention on expression of adipogenic factors, twelve Swiss Webster male mice (30-32 g) obtained from Simonsen, Inc. were treated by oral gavage once per day for 4 days with 4 ml/kg volume of either 0.5% CMC (0 mg/kg/day), 25 mg/ml compound D in 0.5% CMC (100 mg/kg/day), or 7.5 mg/ml and 25 mg/ml of compound B in 0.5% CMC (30 and 100 mg/kg/day, respectively). Four hours after the final dose, animals were anesthetized, sacrificed, and approximately 150 mg of adipose, heart, kidney, liver, lung, and muscle were isolated and stored in RNALATER solution (Ambion) at −20° C. RNA isolation and gene expression analysis was performed as described in Example 3 above.

Assay [2] concerns HIF-1α. The assay is described as follows: HIFα stabilization in cells, nuclear fraction Western blot. The class given is cell-based, human. Particulars: various cell types, overnight incubation; FIG. 8A. An excerpt:
Compounds of the present invention for use in the present methods stabilize HIFα, inhibit HIF hydroxylase activity and/or HIFα hydroxylation, etc. Thus, compounds can be identified, e.g., by their ability to stabilize HIFα. Stabilization of HIFα using compounds and methods of the present invention was examined as follows. Human cells derived from adenovirus-transformed fetal kidney epithelium (293A), cervical epithelial adenocarcinoma (HeLa), hepatocellular carcinoma (Hep3B), squamous carcinoma (SSC-25), and lung fibroblast (HLF) tissues (see, e.g., American Type Culture Collection, Manassas Va.; and Qbiogene, Carlsbad Calif.) were separately seeded into 100 mm culture dishes and grown at 37° C., 20% O2, 5% CO2 in media as follows: HeLa cells in Dulbecco's Modification of Eagle's Medium (DMEM), 2% fetal bovine serum (FBS); HLF cells in DMEM, 10% FBS; 293A cells in DMEM, 5% FBS; and Hep3B cells in Minimal Essential Medium (MEM), Earle's BSS (Mediatech Inc., Herndon Va.), 2 mM L-glutamine, 0.1 mM non-essential amino acids, 1 mM sodium pyruvate, 10% FBS. When cell layers reached confluence, the media was replaced with OPTI-MEM media (Invitrogen Life Technologies, Carlsbad Calif.) and cell layers were incubated for approximately 24 hours in 20% O2, 5% CO2 at 37° C. […]
For orientation: A western blot detects proteins with antibodies after separation by electrophoresis.

Assay [3] deals with GluT-1. The assay is described as follows: GluT-1 protein levels in SCC-25 cells, Western blot. The following applies: 10 and 25 μM, 16 hours, FIG. 9A. It is filed as cell-based, human. As for the experimental part:
(§2) As the compounds and methods of the invention regulate fat metabolism, which is tightly coordinated with glucose regulation, the effect of compounds and methods on glucose uptake and metabolism was analyzed. Human SSC-25 (squamous cell carcinoma) or rat H9c2 (ventricular cardiomyocyte) cells were grown to confluence in 100 mm culture dishes at 37° C., 10% CO2 in DMEM with 10% fetal calf serum. Cells were then washed twice with PBS and incubated with vehicle control, compound D (10 and 25 μM), or compound C (5, 10, and 20 μM) for 16 hours. Plates were placed on ice, culture supernatant was removed, and lysis buffer-1 (LB-1: 10 mM Tris pH 7.4, 1 mM EDTA, 150 mM sodium chloride, 0.5% IGEPAL) was added. Cells were harvested by scraping, incubated for 15 minutes on ice, and then centrifuged at 3,000×g for 5 minutes at 4° C. The supernatant, which represents the cytosolic fraction, was collected and cytosolic proteins were separated under reducing conditions using SDS-polyacrylamide gel electrophoresis (SDS-PAGE) with equal amounts of protein loaded per lane.
(§3) SDS-PAGE was conducted at 150 V for 2 hours, after which the proteins were transferred to a PVDF membrane at 400 mA for 1.5 hours at 4° C. […]

In assay [4] the test system is PPAR-γ. The assay is described as follows: PPAR-γ expression in tissue after 4 days of oral dosing. It is filed as in vivo, mouse. The following applies: cardiac tissue; oral gavage once per day for 4 days; FIG. 3C. As to the method: as §1
Assay [5] concerns HIF-1α. The assay is described as follows: HIF-1α in nuclear fractions, TRANSAM HIF-1 ELISA. Particulars: 293A and Hep3B cells, vs vehicle; FIG. 8B. The class given is cell-based, human. An excerpt: Compounds of the present invention for use in the present methods stabilize HIFα, inhibit HIF hydroxylase activity and/or HIFα hydroxylation, etc. Thus, compounds can be identified, e.g., by their ability to stabilize HIFα. Stabilization of HIFα using compounds and methods of the present invention was examined as follows. Human cells derived from adenovirus-transformed fetal kidney epithelium (293A), cervical epithelial adenocarcinoma (HeLa), hepatocellular carcinoma (Hep3B), squamous carcinoma (SSC-25), and lung fibroblast (HLF) tissues (see, e.g., American Type Culture Collection, Manassas Va.; and Qbiogene, Carlsbad Calif.) were separately seeded into 100 mm culture dishes and grown at 37° C., 20% O2, 5% CO2 in media as follows: HeLa cells in Dulbecco's Modification of Eagle's Medium (DMEM), 2% fetal bovine serum (FBS); HLF cells in DMEM, 10% FBS; 293A cells in DMEM, 5% FBS; and Hep3B cells in Minimal Essential Medium (MEM), Earle's BSS (Mediatech Inc., Herndon Va.), 2 mM L-glutamine, 0.1 mM non-essential amino acids, 1 mM sodium pyruvate, 10% FBS. When cell layers reached confluence, the media was replaced with OPTI-MEM media (Invitrogen Life Technologies, Carlsbad Calif.) and cell layers were incubated for approximately 24 hours in 20% O2, 5% CO2 at 37° C. A compound of the invention (compound B, D, F, G, or H) or vehicle control (0.5 to 1% DMSO) was then added to existing medium, and incubation was continued overnight.
Alternatively, nuclear fractions were prepared using a nuclear extract kit (Active Motif, Carlsbad Calif.) and were analyzed for HIF-1α using a TRANSAM HIF-1 ELISA kit (Active Motif) according to the manufacturer's instructions.
Background: An ELISA detects its analyte on a solid surface through an enzyme-linked reagent.

A short description of assay [6]: Diet-induced obesity model, high-fat diet, 28 days. It is filed as in vivo, C57BL/6J mice. Particulars: 75 mg/kg/day oral gavage, vs high-fat vehicle, p<0.05, FIG. 6A. As to the method: The effect of the present compounds and methods on fat regulation, e.g., fat uptake and storage, etc., and on regulation of body weight was analyzed as follows. C57Bl/6J mice fed a high-fat diet develop severe obesity, hyperglycemia, and hyperinsulinemia, and are a model of diet-induced obesity, Type 2 diabetes, and impaired glucose tolerance. Forty male C57BL/6J mice obtained from The Jackson Laboratory (Bar Harbor Me.) were divided into the following experimental groups: Group 1: vehicle control animals fed standard mouse chow (n=10); Group 2: vehicle control animals fed high-fat mouse chow (45% fat from Research Diets) (n=10); Group 3: animals fed high-fat mouse chow and administered 75 mg/kg/day compound E by oral gavage (n=10); Group 4: animals fed high-fat mouse chow and administered 75 mg/kg/day compound A by oral gavage (n=10). The feeding regimen was continued for 28 days with weekly measurement of body weight. Animals were then sacrificed and their organs and fat pads were harvested and weighed.

Assay [7] concerns GluT-1. The assay is described as follows: GluT-1 protein levels in H9c2 cells, Western blot. It is filed as cell-based, rat. Particulars: H9c2 cells, 5, 10 and 20 μM, 16 hours; FIG. 9A. As to the method: as §2, §3

On to `O=C(O)c1c[nH]c2c(ccc3cccnc32)c1=O` [compound D, 4-Oxo-1,4-dihydro-[1,10]phenanthroline-3-carboxylic acid], for which the DEC1/Stra13 expression entry in assay [1] is reported as “increased DEC1/Stra13 expression”. Further, in assay [2], the HIFα stabilization entry was “stabilized HIFα”. Further, the “protein levels of GluT-1” value in assay [3] is on record as “increased protein levels of GluT-1”. In assay [4], the PPAR-γ expression result is recorded as “decreased PPAR-γ expression”. On to `COC(=O)CNC(=O)c1nc(Cl)c2cc(OCc3ccccc3)ccc2c1O` [compound H, [(7-Benzyloxy-1-chloro-4-hydroxy-isoquinoline-3-carbonyl)-amino]-acetic acid methyl ester], for which, in assay [5], the “stabilization and accumulation of HIFα” value is “stabilization and accumulation of HIFα”. Regarding `O=C(O)CNC(=O)c1nc2cc(Cl)ccc2cc1O` [compound A, [(7-Chloro-3-hydroxy-quinoline-2-carbonyl)-amino]-acetic acid], the weight gain entry in assay [6] is reported as “significantly less weight gain”. As for `COc1ccc2c(O)c(C(=O)NCC(=O)O)nc(Cl)c2c1` [compound E, [(1-Chloro-4-hydroxy-7-methoxy-isoquinoline-3-carbonyl)-amino]-acetic acid], the weight gain entry in assay [6] was “significantly less weight gain”.

As for `CC(C)Oc1ccc2nc(C(=O)NCC(=O)O)c(O)cc2c1` [compound F, [(3-Hydroxy-6-isopropoxy-quinoline-2-carbonyl)-amino]-acetic acid], the “stabilization and accumulation of HIFα” value in assay [5] is “stabilization and accumulation of HIFα”. As to `O=C(O)CNC(=O)c1ncccc1O` [compound G, [(3-Hydroxy-pyridine-2-carbonyl)-amino]-acetic acid], in assay [5], the “stabilization and accumulation of HIFα” value is “stabilization and accumulation of HIFα”. Regarding `O=C(O)CNC(=O)c1ncc2cc(Oc3ccccc3)ccc2c1O` [compound C, [(4-Hydroxy-7-phenoxy-isoquinoline-3-carbonyl)-amino]-acetic acid], the “protein levels of GluT-1” value in assay [7] was “increased protein levels of GluT-1”.
